Consider one compound from patent publication US20260325538A1, “THERAPY” (priority 2023, published 2026).

Assay [1] concerns Klebsiella pneumoniae Kpn St147 (NDM-1 and KPC-2). Briefly: MIC determination of ceftazidime with zinc chelator and avibactam (checkerboard, broth microdilution). The note with it: with CAZ and avibactam. The assay is classed as cell-based. From the text: The fractional inhibitory concentration (FIC) is defined as the concentration that kills when used in combination with another agent divided by the concentration that has the same effect when used alone. The FIC index (FICI) for the combination of two agents is the sum of their individual FIC values. […] The European Committee for Antimicrobial Susceptibility Testing (EUCAST) of the European Society of Clinical Microbiology and Infectious Diseases (ESCMID) 2000 adopts the following definitions to determine the susceptibility of bacteria to an antimicrobial agent (see EUCAST Definitive Document E. Def 1.2: Terminology relating to methods for the determination of susceptibility of bacteria to antimicrobial agents. Clin. Microbiol. Infect. 2000; 6(9): 503-508): • FICI value≤0.5; synergy • 0.5<FICI value≤1; additive effect • 1<FICI value≤2; indifferent effect • FICI≥2; antagonistic effect
Antimicrobial susceptibility testing (AST) by broth microdilution was performed according to The European Committee on Antimicrobial Susceptibility Testing. Reading guide for broth microdilution. Version 4.0, 2022 (see: http://www.eucast.org).
Checkerboard 96-well plates (Corning 3788) were made by conducting serial two-fold dilutions of CAZ in cation-adjusted Mueller Hinton II broth (caMHB; Thermo Scientific, T3462), in columns across the microtiter plate (64-0.03 μg/ml). Additionally, avibactam was added to rows 3 to 8 in concentrations of 64, 16, 8, 4, 1 and 0.25 μg/ml, respectively. The zinc chelator was added to the wells of the plate, where applicable. […] The first row in all plates was used as a positive control for CAZ only, and the second row included the zinc chelator in addition to CAZ (no avibactam added to rows 1 or 2). The zinc chelator was added at the indicated concentration to rows 3-8 of plates 2 and 3.
The effect of the combination of zinc chelator/CAZ/avibactam was tested on a clinically isolated Klebsiella pneumoniae Kpn St147 actively constitutionally expressing the two resistance mechanisms NDM-1 and KPC-2 simultaneously. As a negative control, bacteria+CAZ was tested alone. As a positive control, bacteria+CAZ+zinc chelator was used. In Tables 3 and 4, concentrations (μg/ml) of CAZ are given in the top row left to right and avibactam concentrations (μg/ml) are given top to bottom in column 1.
ΣFICI=MICA(combination)/MICA (alone)+MICB(combination)/MICB (alone)+MICC(combination)/MICC (alone)

For assay [2], the system named is Acinetobacter baumannii ST15 (NDM-1 OXA-51, ADC-263). Briefly: Checkerboard MIC, fixed concentration of sBLI (Examples 11-17). The assay is classed as cell-based. The text has this: The antibiotics and serine β-lactamase-inhibitors (sBLIs) were purchased from the following suppliers: Ceftazidime (CAZ): Sigma-Aldrich; Cefepime (FEP): Sigma-Aldrich; Cefpodoxime (CEFP): MedChemExpress; Sulbactam (SUL): Sigma-Aldrich Avibactam (AVI): Biosynth; Vaborbactam (VAB): ABCR; Tazobactam (TAZ): Sigma-Aldrich; Taniborbactam (TAN): Sigma-Aldrich.
In each of Examples 3-23, the compound of Example 26 of WO 2018/033719 was employed as the zinc chelator. The following abbreviations are used in these examples: sBLI means serine-β-lactamase inhibitor; CFU means colony-forming unit, which is a group of microbes that grows from a single cell on a petri plate; DMSO means dimethyl sulfoxide; MHB means Mueller-Hinton broth; caMHB means cation-adjusted Mueller-Hinton broth; MIC means minimum inhibitory concentration—the lower the MIC, the more efficient the combination against the respective bacterial strain.
General Protocol 2 Used in Examples 11-23 Employing a Fixed Concentration of sBLI within Each Experiment:
Antimicrobial susceptibility testing (AST) by broth microdilution (MIC determination) was performed according to The European Committee on Antimicrobial Susceptibility Testing (EUCAST) guidelines (see Reading guide for broth microdilution Version 5.0, 2024: https://www.eucast.org).
Sterile clear round bottom polystyrene (non-treated) 96-well microplates (Corning 3788) were used for making serial two-fold dilutions of the antibiotic in cation-adjusted Mueller Hinton II broth (caMHB; Thermo Scientific, T3462, containing 29.4 μM Zn^2+ or MILLIPORE, 90922-500G, containing 5.6 μM Zn^2+), across the columns of the microtiter plate (128-0.06 μg/mL; columns 1-12).
The checkerboard plates were all modified by adding a serine β-lactamase inhibitor (sBLI) at a fixed concentration of 16 μg/mL. Additionally, the zinc chelator was added at various fixed concentrations. Samples were mixed so that all plates contained a control containing antibiotic alone (no sBLI, no zinc chelator), a sample containing antibiotic and sBLI (double combination; no zinc chelator), and a sample containing antibiotic, sBLI and zinc chelator (triple combination). All test wells used in each plate contained growth medium (caMHB), and inoculated bacteria at a final inoculum between 3-7×10^5 CFU/mL. […] Synergy for the triple combination (antibiotic, sBLI, and zinc chelator) was defined as when the MIC in any of the rows containing the zinc chelator in combination with antibiotic and sBLI (triple combination), was lower than for antibiotic alone and lower than for the antibiotic and sBLI double combination.
An X in rows 1-4 in the table indicates growth of the bacterial inoculum, while a blank cell indicates no growth. Concentrations (μg/mL) of FEP are given in row 0. AVI and the zinc chelator were added in fixed concentrations (AVI at 16 μg/mL in rows 2-4, zinc chelator at 16 μg/mL in row 3 and at 8 μg/mL in row 4). As a control, the effect of FEP alone was tested (row 1). All wells contained bacterial growth medium (caMHB, 29.4 μM Zn^2+) and were inoculated with the test bacterium. The grey cells indicate the FEP MIC.
An X in rows 1-4 in the table indicates growth of the bacterial inoculum, while a blank cell indicates no growth. Concentrations (μg/mL) of FEP are given in row 0. SUL and the zinc chelator were added in fixed concentrations (SUL at 16 μg/mL in rows 2-4, zinc chelator at 16 μg/mL in row 3 and at 8 μg/mL in row 4). As a control, the effect of FEP alone was tested (row 1). All wells contained bacterial growth medium (caMHB, 29.4 μM Zn^2+) and were inoculated with the test bacterium. The grey cells indicate the FEP MIC.
An X in rows 1-4 in the table indicates growth of the bacterial inoculum, while a blank cell indicates no growth. Concentrations (μg/mL) of FEP are given in row 0. TAZ and the zinc chelator were added in fixed concentrations (TAZ at 16 μg/mL in rows 2-4, zinc chelator at 16 μg/mL in row 3 and at 8 μg/mL in row 4). […]

Turning to `CN(C[C@H](O)[C@@H](O)[C@H](O)[C@H](O)CO)C(=O)c1ccc(CN(Cc2ccccn2)Cc2ccccn2)nc1` [zinc chelator], the “FICI Zinc Chelator” value in assay [1] (zinc chelator 8 μg/mL) is 0.0039; in assay [1] (zinc chelator 16 μg/mL) it was 0.0078. Besides, the “synergy with the zinc chelator” value in assay [2] (zinc chelator 4 μg/mL, with CEFP and SUL 16 μg/mL, caMHB 5.6 μM Zn2+) is “Synergy”; in assay [2] (zinc chelator 4 μg/mL, with FEP and AVI 16 μg/mL, caMHB 5.6 μM Zn2+) it was “Synergy”; in assay [2] (zinc chelator 8 μg/mL, with CEFP and SUL 16 μg/mL, caMHB 5.6 μM Zn2+), “Synergy”; in assay [2] (zinc chelator 8 μg/mL, with FEP and AVI 16 μg/mL, caMHB 5.6 μM Zn2+) it was “Synergy”; in assay [2] (zinc chelator 8 μg/mL, with FEP and AVI 16 μg/mL, caMHB 29.4 μM Zn2+) it was “Synergy”; in assay [2] (zinc chelator 8 μg/mL, with FEP and SUL 16 μg/mL, caMHB 29.4 μM Zn2+), “Synergy”. Also, the “synergy with the zinc chelator” value is listed as “Synergy” in assay [2] (zinc chelator 8 μg/mL, with FEP and TAZ 16 μg/mL, caMHB 5.6 μM Zn2+); “Synergy” in assay [2] (zinc chelator 8 μg/mL, with FEP and TAZ 16 μg/mL, caMHB 29.4 μM Zn2+); “Synergy” in assay [2] (zinc chelator 16 μg/mL, with CEFP and SUL 16 μg/mL, caMHB 5.6 μM Zn2+); “Synergy” in assay [2] (zinc chelator 16 μg/mL, with CEFP and SUL 16 μg/mL, caMHB 29.4 μM Zn2+); “Synergy” in assay [2] (zinc chelator 16 μg/mL, with FEP and AVI 16 μg/mL, caMHB 29.4 μM Zn2+); “Synergy” in assay [2] (zinc chelator 16 μg/mL, with FEP and SUL 16 μg/mL, caMHB 29.4 μM Zn2+). The “synergy with the zinc chelator” value in assay [2] (zinc chelator 16 μg/mL, with FEP and TAZ 16 μg/mL, caMHB 5.6 μM Zn2+) was “Synergy”; in assay [2] (zinc chelator 16 μg/mL, with FEP and TAZ 16 μg/mL, caMHB 29.4 μM Zn2+) it was “Synergy”.
